Numbers after ± are expanded uncertainties.
Key:
[1] = Liquid, Ebulliometric method (Recirculating still)
[2] = refractive index (Na D-line) (dimensionless); details: 298.15 K; 101.33 kPa; Liquid; Standard Abbe refractometry

SMILES	vapor or sublimation pressure ([1]; 350.23 K)	refractive index [2]	vapor or sublimation pressure ([1]; 372.73 K)
CCOC(C)=O [ethyl acetate]	101.33 ± 1.6 kPa	1.3712 ± 0.0005	–
C[Si](C)(C)O[Si](C)(C)C [hexamethyldisiloxane]	–	1.3737 ± 0.0005	101.33 ± 1.6 kPa

From the NIST ThermoML archive (doi:10.1021/je2008445)
